From PubChem BioAssay AID179 (DTP/NCI, 2004)
Calls of active or inactive are those of the source.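 Rule for the calls: active = compounds giving half or more protection of infected cells from virus-caused growth loss, again on retest; inactive = the rest.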 Where a SMILES comes first, the peptide text is derived from it. Bridges are numbered along the chain shown (N, C = ends). Roman numbers before positions name the chains, in order. The star is where a group is joined. Cbz = O=C(OCc1ccccc1)*

Test system: CEM cells HIV-1 protection, formazan growth assay
Experiment: NCI AIDS Antiviral Assay
Details: for IC50: measured here: growth of uninfected CEM cells
How it was run: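 Steps: treat uninfected and HIV-1-infected human CEM cells at five drug levels; quantify growth by soluble formazan; retest any compound reaching 50% protection; classify actives from the retest.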

COc1cc(CCCC(O)COc2cccc3c2C2(O)CCCCCC32)cc(OC)c1 (configuration not stated)
EC50: > 200 µM | IC50: 12.6 µM

CCOC(=O)/C(=C\c1ccc(F)cc1)[Se]c1ccccc1
EC50: > 38.9 µM | IC50: > 38.9 µM

CN(N)C(=O)NCCCl
EC50: > 200 µM | IC50: > 200 µM

N#Cc1c(N)c(C(=O)Nc2ccccc2)n2c1CCC2
EC50: > 200 µM | IC50: > 200 µM

CCOC(=O)c1ccc(N2CN3c4ccccc4CCC3C2c2c[nH]c(=O)[nH]c2=O)cc1 (configuration not stated)
EC50: > 69.2 µM | IC50: > 69.2 µM

CC(C)C(NC(=O)C(CSSCC(NC(=O)OCc1ccccc1)C(=O)NC(C(=O)O)C(C)C)NC(=O)OCc1ccccc1)C(=O)O (stereo not drawn) (I: Cbz-Cys-Val-OH / II: Cbz-Cys-Val-OH; disulfide I:1-II:1; configuration not given here)
EC50: > 200 µM | IC50: 112 µM

CC(=O)OCC1OC(n2c(C)c(C(C)=O)c(-c3ccc(Cl)cc3)c(C#N)c2=S)C(OC(C)=O)C(OC(C)=O)C1OC(C)=O (configuration not stated)
EC50: > 200 µM | IC50: 148 µM

CCCC[As](CCCC)SC1CCC2(C)C(=CCC3C4CCC(=O)C4(C)CCC32)C1 (configuration not stated)
EC50: > 46.8 µM | IC50: 15.8 µM

CNC(=O)OCc1nc(N=[N+]=[N-])n(C)c1COC(=O)NC
EC50: > 200 µM | IC50: 42.7 µM

CCOC(=O)C1=C(C)NC(c2ccco2)=C(C#N)C1c1cccc([N+](=O)[O-])c1 (configuration not stated)
EC50: > 0.2 µM | IC50: 0.0832 µM

Cc1c(C)n(-c2ccccc2)c2nc(S(C)=O)nc(S(C)=O)c12 (configuration not stated)
EC50: > 20 µM | IC50: 1.35 µM

CC(C)=CCC/C(C)=C/CC/C(C)=C/C(O)c1ccccc1 (configuration not stated)
EC50: > 50.1 µM | IC50: > 50.1 µM

CC(C)=C[C@@H]1C[C@H](n2cc(C)c(=O)[nH]c2=O)ON1CCOS(=O)(=O)c1ccc(C)cc1
EC50: > 200 µM | IC50: 81.3 µM

CCOc1c(OC)cc(CNNc2nccs2)cc1OC
EC50: > 200 µM | IC50: 89.1 µM

COc1ccc(N2C(=O)C3c4[nH]c5c(C)cccc5c4C4CCC(C(C)(C)C)CC4C3C2=O)cc1 (configuration not stated)
EC50: > 200 µM | IC50: 7.94 µM

O=S1c2ccc(Cl)cc2CC(SSC2Cc3cc(Cl)ccc3S(=O)c3ccccc32)c2ccccc21 (configuration not stated)
EC50: > 4.68 µM | IC50: > 4.68 µM

COc1ccc(C2=[S+]C(c3ccccc3)(c3ccccc3)c3ccccc32)cc1
outcome: inactive

O=C(O)C1CC2C3CCC2C1C3=O (configuration not stated)
EC50: > 200 µM | IC50: > 200 µM

CC(=O)NC(CC(C)C)C(=O)NC(CC(=O)O)C(=O)NC(CCCCN)C(=O)NC(C)C(=O)NC(CO)C(=O)NC(Cc1ccc(O)cc1)C(=O)NC(CO)C(=O)NC(C(=O)NC(CC(N)=O)C(=O)NC(Cc1cnc[nH]1)C(=O)NC(CC(C)C)C(N)=O)C(C)O (configuration not stated) (Ac-LDKASYSTNHL-NH2; configuration not given here)
EC50: > 47.9 µM | IC50: > 47.9 µM

CC(=O)[O-].Cc1ccnc(NS(=O)(=O)c2ccc(N=Cc3ccccc3[O-])cc2)n1.Cc1ccnc(NS(=O)(=O)c2ccc(N=Cc3ccccc3[O-])cc2)n1.[Cu+2]
EC50: > 200 µM | IC50: 5.62 µM

CCN(CC)CP(CN(CC)CC)CN(CC)CC
EC50: > 200 µM | IC50: 126 µM

Nc1ncnc2c1ncn2[C@H]1CC(CO)CO1 (some centres not stated)
EC50: > 661 µM | IC50: > 661 µM

COc1ccc2c(c1)CCC1=C2CCC(=O)C1C (configuration not stated) (tested in a mixture with another compound)
EC50: > 200 µM | IC50: 7.94 µM

CN(C(=S)Nc1ccccc1)c1cc(N2CCCC2)ccn1
EC50: > 200 µM | IC50: 29.5 µM

CC(=O)n1cc(CC(C)O)c(=O)[nH]c1=O (configuration not stated)
EC50: > 1170 µM | IC50: > 1170 µM

O=C(NC(=Nc1ccccc1)SCCSC(=Nc1ccccc1)NC(=O)c1ccccc1)c1ccccc1
EC50: > 18.6 µM | IC50: > 18.6 µM

CC(=O)Nc1ccccc1NC1CC(C)N(c2ccccc2)N1C(C)=O (configuration not stated)
EC50: > 200 µM | IC50: 32.4 µM

COc1ccc(NC(=O)/C(=C/N2C(=O)/C(=C/c3ccc(OC)c(OC)c3)NC2=S)C(C)=O)cc1
EC50: > 200 µM | IC50: 23.4 µM

CCOC(=O)c1cc2cc3c4c(c2oc1=O)CCCN4CCC3
EC50: > 115 µM | IC50: > 115 µM

O=C1c2ccccc2C(=O)N1N1CC1c1ccccc1 (configuration not stated)
EC50: > 200 µM | IC50: 138 µM

N/C(=C\c1ccc(OCc2ccccc2)c(OCc2ccccc2)c1[N+](=O)[O-])C(=O)O
outcome: inactive

CC(O)(c1ccc(OCCC[N+](C)(C)C)cc1)C(C)(O)c1ccc(OCCC[N+](C)(C)C)cc1 (configuration not stated)
EC50: > 1820 µM | IC50: 794 µM

O=C1CCCC2=C1CC1=C(CCCC1=O)N2c1ccccc1C(=O)O
EC50: > 200 µM | IC50: > 200 µM

O=c1c2ccccc2nc2n1-c1ccccc1SC2
EC50: > 97.7 µM | IC50: > 97.7 µM

Nc1ccn(C2OC(COP(=O)(O)O)C(O)C2O)c(=O)n1 (configuration not stated) (tested in a mixture with another compound)
EC50: > 200 µM | IC50: 40.7 µM

C1C2OC2C2C1C1CC2C2OC12 (configuration not stated)
EC50: > 1510 µM | IC50: > 1510 µM

O=C(O)c1ccc([N+](=O)[O-])cc1S(=O)(=O)O
EC50: > 200 µM | IC50: > 200 µM

CC(C)(C)[Si](C)(C)OCC1OC(n2ccc(=O)[nH]c2=O)C(O[Si](C)(C)C(C)(C)C)C1(O)C/C=N/O (configuration not stated)
EC50: > 200 µM | IC50: 7.59 µM

O=C1c2ccccc2S(=O)(=O)c2cc(-c3nn[nH]n3)ccc21
EC50: > 200 µM | IC50: > 200 µM

CCOP(=O)(OCC)/C(C#N)=C/c1cnc(C)[nH]1
EC50: > 200 µM | IC50: > 200 µM

CC/C=C1\N=C(c2ccc(Cl)cc2)OC1=O
EC50: > 151 µM | IC50: 126 µM

N#CC1=C(N)C(C#N)(C#N)C2(CCCC2)C2CCC=C12 (configuration not stated)
outcome: inactive

Cc1cccc(C)c1N/C(=N\Nc1c([N+](=O)[O-])cccc1[N+](=O)[O-])NC(=O)c1ccccc1C(=O)N/C(=N/Nc1c([N+](=O)[O-])cccc1[N+](=O)[O-])Nc1c(C)cccc1C
EC50: > 200 µM | IC50: 69.2 µM

O=C1Oc2ccccc2C(=O)/C1=C/N1C(=O)CNC1=S
EC50: > 200 µM | IC50: > 200 µM

Cc1nnc2c3nnc(C)n3c3ccccc3n12
outcome: inactive

CC(C)(Oc1ccc(C2C[C@H]2Cl)cc1)C(=O)O (some centres not stated)
EC50: > 200 µM | IC50: > 200 µM

Cn1c2c(c3ccccc31)CCN(CCN1CCN(c3cccc(Cl)c3)CC1)C2=O
EC50: > 8.51 µM | IC50: > 8.51 µM

CCn1c2c(c3ccccc31)C(c1ccccc1)CC1C(=O)N(c3ccccc3)C(=O)C21 (configuration not stated)
EC50: > 11.7 µM | IC50: > 11.7 µM

C/C(CC1(O)C(=O)Nc2ccccc21)=N\O (configuration not stated)
EC50: > 200 µM | IC50: > 200 µM

O=C1OCCOCCOCCOCCOCCOCCOC(=O)c2cccc1n2
EC50: > 107 µM | IC50: 56.2 µM

COC(=O)c1c2c(cc3c1CC1(Cc4cc5c(c(C)c4C1)CCC5)C3)CCC2 (configuration not stated)
EC50: > 200 µM | IC50: > 200 µM

Cc1cccc(N2C(=O)C3c4[nH]c5ccc(C)cc5c4C4CCC(C(C)(C)C)CC4C3C2=O)c1 (configuration not stated)
EC50: > 200 µM | IC50: 8.51 µM

Oc1cc2c(cc1O)-c1[nH]ncc1CC2
EC50: > 67.6 µM | IC50: 33.1 µM

CN1C[C@H]2[C@@H](C1=O)[C@H](c1ccccc1)ON2C
EC50: > 200 µM | IC50: > 200 µM

CC1CN(S(=O)(=O)c2cccc3cnccc23)CCN1 (configuration not stated)
EC50: > 126 µM | IC50: 38 µM

CCc1cccc(C(C)C)c1NC(=O)C(=O)C1C(=O)NC(=O)NC1=O
outcome: inactive

N#CCc1nc2ccccc2c(=O)[nH]1
EC50: 17.8 µM | IC50: 69.2 µM

Cc1ccc(S(=O)(=O)N/N=C\c2c3ccccc3[n+](C)c3ccccc23)cc1
outcome: inactive

CC(C)c1ccc(C2C3=C(N=C4SCC(=O)N42)C(=O)c2ccccc23)cc1 (configuration not stated)
EC50: > 13.8 µM | IC50: > 13.8 µM

COc1ccc(/C=C2/CCS(=O)(=O)c3ccc(C)cc3C2=O)cc1OC
EC50: > 200 µM | IC50: 6.03 µM

CCCCCC1CC2=C(C(=O)OC2=O)C(O)C(O)(CCCC)CC2=C1C(=O)OC2=O (configuration not stated)
EC50: > 85.1 µM | IC50: > 85.1 µM

O=C(O)c1ccc(C(=O)c2ccccc2)c(C(=O)O)c1
EC50: > 200 µM | IC50: > 200 µM

CCCCCCCCC1=C(OC)C(=O)c2c(C)ccnc2C1=O
outcome: inactive

CCOC(=O)C1(Br)CCN(S(=O)(=O)c2ccc(C)cc2)c2ccccc2C1=O (configuration not stated)
EC50: > 200 µM | IC50: 1.51 µM

CC12CCC(=O)CC13CCC2OC(O)C3 (configuration not stated)
outcome: inactive

Cc1ccc(C2(O)CC(c3ccc([N+](=O)[O-])o3)=NN2C(=O)COc2ccccc2Cl)cc1 (configuration not stated)
EC50: > 1.66 µM | IC50: > 1.66 µM

CCOC(=O)C[N+]1(C)C2CCC1CC(O)C2 (configuration not stated)
EC50: > 200 µM | IC50: > 200 µM

N[C@H]1c2c(Cl)cccc2C(=O)[C@H]1O
EC50: > 200 µM | IC50: 11 µM

CC(NC(=O)C(C)NC(=O)C(CC(N)=O)NC(=O)CN)C(=O)NC(CO)C(=O)NC(C)C(=O)NC(CCCN=C(N)N)C(=O)NC(CCCN=C(N)N)C(N)=O (configuration not stated) (H-GNAASARR-NH2; configuration not given here)
outcome: inactive

COc1ccc2c(c1)OC(C)(C)C1c3c(cc(OC)c(O)c3C)OC21 (configuration not stated)
EC50: > 200 µM | IC50: 9.33 µM

COC(=O)CCC12CCC(=O)C1[C@@H](C(=O)OC)C[C@H]2C(=O)OC (some centres not stated)
outcome: inactive

COC(=O)C(C(=O)C(=O)Nc1c(C)cccc1C(C)(C)C)c1nc2ccc(Cl)cc2[nH]c1=O (configuration not stated)
EC50: > 55 µM | IC50: > 55 µM

NCCCNCCS
EC50: > 589 µM | IC50: 30.2 µM

C[N+]12CCCc3cc(CO)cc(c31)CCC2
EC50: 112 µM | IC50: 603 µM

COC(=O)CN1C(=O)c2cccc3cc(N)cc(c23)C1=O
EC50: > 200 µM | IC50: > 200 µM

CCP(=O)(CC)C(Cl)(Cl)C(O)C(Cl)(Cl)Cl (configuration not stated)
EC50: > 200 µM | IC50: > 200 µM

COc1ccc(S(=O)(=O)N/N=C/CN2C(=O)c3ccccc3C2=O)cc1OC
EC50: > 64.6 µM | IC50: > 64.6 µM

O=[N+]([O-])c1ccc(CS(=O)(=O)c2ccccc2)cc1
outcome: inactive

O=C(O)/C=C\C(=O)Nn1c(Cc2ccc(Cl)cc2)n[nH]c1=O
EC50: > 200 µM | IC50: > 200 µM

C=C1CCC[C@@H]2[C@@](C)(CC3=CC(=O)C=CC3=O)C(C)CC[C@]12C (some centres not stated)
EC50: > 60.3 µM | IC50: 0.427 µM

CCP(CC)(c1ccccc1)=c1c(=O)c(Cl)c(Cl)c(=O)c1=O
EC50: > 200 µM | IC50: 27.5 µM

Clc1ccc(C2SCc3nc4ccccc4n32)cc1 (configuration not stated)
outcome: inactive
